Data taken from the OPERA property sets (Mansouri et al. 2018).

conditions: 21.0 °C

Row | Structure (SMILES) | log10 OH rate constant (cm³/molecule/s)
1 | CC1=CC=C(C(C)C)CC1 | -9.44

same assay, conditions: 23.0 °C

Row | Structure (SMILES) | log10 OH rate constant (cm³/molecule/s)
2 | COC(C)=O | -12.5
3 | c1ncncn1 | -12.8

same assay, conditions: 24.0 °C

Row | Structure (SMILES) | log10 OH rate constant (cm³/molecule/s)
4 | c1c[nH]cn1 | -10.4
5 | c1cscn1 | -11.9

same assay, conditions: 25.0 °C

Row | Structure (SMILES) | log10 OH rate constant (cm³/molecule/s)
6 | COO | -11.3
7 | OCCO | -11.1
8 | CC(C)C(C)O (stereo not drawn) | -10.9
9 | COC(C)CCO (stereo not drawn) | -10.6
10 | CCCCCCC(C)C | -11
11 | CCN(O)CC | -10
12 | FC(F)(F)Cl | < -15.2
13 | CC1=CCC(C(C)C)C=C1 (stereo not drawn) | -9.5
14 | C=C=O | -10.8
15 | C=CC=C | -10.2
16 | CCC=O | -10.7
17 | C=CCCCC | -10.4
18 | CC#CC | -10.6
19 | CBr | -13.4
20 | CCC(C)CS (stereo not drawn) | -10.3
21 | C1COCOC1 | -11
22 | O=CC=O | -10.9
23 | C1CC2CCC1CC2 | -10.8
24 | CC(=O)CC(C)=O | -11.9
25 | CCCC(C)O (stereo not drawn) | -10.9
26 | C=C(C)C | -10.3
27 | C=CF | -11.3
28 | CCC(C)C | -11.4
29 | FC(Cl)Cl | -13.5
30 | CN(C)N=O | -11.6
31 | C1CCOC1 | -10.8

Row | Structure (SMILES) | log10 OH rate constant (cm³/molecule/s)
32 | CC(C)C(C)(C)C | -11.4
33 | Fc1ccccc1 | -12.2
34 | FC(F)(F)CCl | -13.8
35 | Oc1ccc(Cl)cc1Cl | -12
36 | CCCc1ccccc1 | -11.2
37 | CCOCCOC(C)=O | -10.9
38 | C1CO1 | -13.1
39 | C1CCCOCC1 | -10.8
40 | ClCC1CO1 (stereo not drawn) | -12.4
41 | CC(C)(C)C(C)(C)C | -12
42 | O=[N+]([O-])c1ccccc1O | -12
43 | c1ccc2c(c1)CCO2 | -10.4
44 | c1ccc(-c2ccccc2)cc1 | -11.1
45 | CCCCC | -11.4
46 | CCc1ccc(C)cc1 | -10.9
47 | CCCCOCCO | -10.7
48 | CN(C)C | -10.2
49 | c1ccc2c(c1)CCC2 | -11
50 | CCCCCCC | -11.1
51 | CCCS | -10.3
52 | ClC(Cl)Cl | -13
53 | CC(=O)CO | -11.5
54 | COP(N)(=S)OC | -9.61
55 | C1CCCCC1 | -11.1
56 | CF | -13.8
57 | C=C/C=C\C | -9.99

Row | Structure (SMILES) | log10 OH rate constant (cm³/molecule/s)
58 | C1=CC2C=CC1C2 | -9.92
59 | FC(F)Cl | -14.3
60 | C1=Cc2cccc3cccc1c23 | -9.96
61 | CCC(C)CC | -11.2
62 | C=C | -11.1
63 | O=Cc1ccccc1 | -10.9
64 | COC(C)OC | -11.1
65 | CCOC=O | -12
66 | CCCCCCCC | -11.1
67 | COP(=S)(OC)SC | -10.3
68 | O=[N+]([O-])c1cccc2ccccc12 | -11.3
69 | c1ccoc1 | -10.4
70 | C=CCCl | -10.8
71 | CCSC | -11.1
72 | C=C(C)C=O | -10.5
73 | CCCCC(C)(C)C | -11.3
74 | C=CC=C(C)C | -9.88
75 | CCC(=O)CC | -11.7
76 | CC(C)C1CC1 | -11.5
77 | C=C=CCC | -10.4
78 | C1CC2CCC1C2 | -11.3
79 | CCOCCOCCOCC | -10.6
80 | CCOC(C)(C)OCC | -10.9
81 | C1CCCCCC1 | -10.9
82 | Nc1ccc(Cl)cc1 | -10.4
83 | C=CC=CC=C | -10.3

Row | Structure (SMILES) | log10 OH rate constant (cm³/molecule/s)
84 | FC(F)(Cl)Cl | < -15.4
85 | c1ccc2c(c1)CCCC2 | -10.5
86 | CCCCC(C)=O | -11
87 | C=C(C)c1ccccc1 | -10.3
88 | CC(C)(C)O | -12
89 | CCCCC=O | -10.5
90 | CCOCCCO | -10.7
91 | FC(F)C(F)(F)F | -14.6
92 | CC(=O)CCC(C)=O | -11.1
93 | CCCSCCC | -10.7
94 | C=C(C)C(=C)C | -9.91
95 | CC(=O)OC(C)C | -11.5
96 | CC=Cc1ccccc1 | -10.2
97 | CC(=O)CC(C)C | -10.9
98 | CN(C)c1ccccc1 | -9.83
99 | Cc1cccc([N+](=O)[O-])c1 | -12
100 | Cc1ccccc1[N+](=O)[O-] | -12.2
101 | C1=CC2CCC1C2 | -10.3
102 | C#CCCC | -11
103 | Cc1ccc2ccccc2c1[N+](=O)[O-] | < -11.1
104 | FC(F)(F)F | < -15.4
105 | CCC(=O)OC | -12
106 | Cc1ccc(N)cc1N | -9.72
107 | CC(C)(C)S | -10.5
108 | C=CC(C)(C)C | -10.5
109 | CN(C)CCO | -10

Row | Structure (SMILES) | log10 OH rate constant (cm³/molecule/s)
110 | OCCCl | -11.9
111 | CC1CCCCC1 | -11
112 | C=CC(C)=CC | -9.87
113 | CC1=CCCCC1 | -10
114 | Cc1ccc(O)cc1 | -10.3
115 | FC(F)(F)c1ccccc1 | -12.3
116 | Clc1ccc(-c2ccccc2)cc1 | -11.4
117 | CC(=O)OO[N+](=O)[O-] | -13
118 | O=CO | -12.3
119 | CC(C)C(=O)O | -11.7
120 | CCCCCCCCCCCCCC | -10.7
121 | CC(C)(C)C=O | -10.6
122 | BrCCBr | -12.6
123 | CC(=O)c1ccccc1 | -11.6
124 | CC(C)CC(C)C(C)C (stereo not drawn) | -11.1
125 | C=CCCCCC | -10.4
126 | FC(F)=C(Cl)Cl | -11.1
127 | C#CCC | -11.1
128 | CC(C)CC=O | -10.6
129 | C1CCCCCCC1 | -10.9
130 | Cc1cccc(O)c1 | -10.2
131 | C=CC(=C)CCC=C(C)C | -9.67
132 | C=CCCC=C | -10.2
133 | Cc1ccccc1O | -10.4
134 | CNC | -10.2
135 | CC(=O)OCC(C)C | -11.3

Row | Structure (SMILES) | log10 OH rate constant (cm³/molecule/s)
136 | CCCCCCCCCCCCC | -10.8
137 | CCCCCCCCCCCCCCCC | -10.6
138 | CCSCC | -10.8
139 | CC(C)COCC(C)C | -10.6
140 | FC(F)(F)c1ccc(Cl)cc1 | -12.6
141 | C=Cc1ccccc1 | -10.2
142 | CCC(=O)O | -11.9
143 | CCCC | -11.6
144 | Cc1cccc(C)c1C | -10.5
145 | Cc1cc(C)cc(C)c1 | -10.2
146 | CCC(O)CC | -10.9
147 | C#C | -12.1
148 | CC(=O)C(C)(C)C | -11.9
149 | C=C=C(C)C | -10.2
150 | CCCCCCCCC | -11
151 | C1COC1 | -11
152 | CC(C)=CC=C(C)C | -9.68
153 | CC(C)S | -10.4
154 | CC(C)=C(C)C | -9.96
155 | CCC(C)(C)C | -11.6
156 | O=[N+]([O-])c1ccccc1 | -12.9
157 | COc1ccccc1 | -10.8
158 | Clc1ccccc1 | -12.1
159 | C1COCCO1 | -11
160 | Clc1cccc(Cl)c1 | -12.1
161 | CCCCCC | -11.3

Row | Structure (SMILES) | log10 OH rate constant (cm³/molecule/s)
162 | COCC(C)=O | -11.2
163 | C=CC(C)=O | -10.7
164 | C=CCO | -10.6
165 | COCCC(OC)OC | -10.7
166 | c1cc[nH]c1 | -9.96
167 | Clc1ccccc1Cl | -12.4
168 | C=C1C=CC(C(C)C)CC1 (stereo not drawn) | -9.77
169 | CCCC(=O)CC | -11.2
170 | c1ccc2c(c1)Cc1ccccc1-2 | -10.9
171 | Nc1ccc(Cc2ccc(N)cc2)cc1 | -10.5
172 | CCCCCCCCC(C)=O | -10.9
173 | Clc1ccc(Cl)c2ccccc12 | -11.2
174 | C=C(CCl)CCl | -10.5
175 | C1CCCC1 | -11.3
176 | CC(F)F | -13.5
177 | C=CC(=C)C | -10
178 | CC(C)CC(C)C | -11.3
179 | CC(C)(C)C | -12.1
180 | c1ccncc1 | -12.4
181 | CCCC(C)(C)C | -11.5
182 | C=C(C)C=CC | -9.87
183 | CC(C)=C=O | -9.97
184 | CC(C)CC(C)(C)C | -11.4
185 | N#Cc1ccccc1 | -12.5

same assay, conditions: 26.0 °C

Row | Structure (SMILES) | log10 OH rate constant (cm³/molecule/s)
186 | CN | -10.7
187 | C=COC | -10.5

same assay, conditions: 27.0 °C

Row | Structure (SMILES) | log10 OH rate constant (cm³/molecule/s)
188 | CCN | -10.6
